Reference: US20230165836A1, “ALPHA-2 ADRENERGIC RECEPTOR AGONISTS FOR THE TREATMENT OF CANCER” (UNIVERSITÉ CATHOLIQUE DE LOUVAIN, priority 2020, published 2023)
Entries after “also recorded” stand apart in the source; their conditions may differ.

What was measured:
CT26 colon carcinomas = assay: CT26 colon carcinoma model, daily i.p. treatment, tumor volume; assay type: in vivo, BALB/c mice
Description: Mice received a daily intra-peritoneal injection of guanabenz (5 mg/kg) or vehicle (PBS) from the day of randomization (and the day of ACT when applicable) until the day of sacrifice. For the co-administration of adrenergic receptor agonist and antagonist, BALB/c mice bearing CT26 colon carcinomas received daily injections of vehicle control, guanabenz (5 mg/kg, i.p.), or guanabenz (5 mg/kg, i.p.) plus yohimbine (10 mg/kg, i.p.), when the tumor size was around 50 mm^3, until the day of sacrifice.
[…] mice were injected subcutaneously with 2×10^6 CT26 colon tumor cells at an age of 6 to 8 weeks. […] For evaluation of yohimbine on the effect of clonidine and guanabenz, the mice were randomized into different groups when tumors size arrived around 100 mm^3 and received daily injections of guanabenz (5 mg/kg, i.p.), yohimbine (10 mg/kg), a mix of guanabenz (5 mg/kg, i.p.) and yohimbine (10 mg/kg, i.p.), clonidine (5 mg/kg, i.p.), a mix of clonidine (5 mg/kg, i.p.) and yohimbine (10 mg/kg, i.p.) or vehicle control. Tumor size was measured every 2 days and mice were sacrificed when the tumor in control group reached 1,000 mm^3.

CT26 colon cancer [1] = assay: CT26 colon cancer tumor growth (FIGS. 15-16); assay type: in vivo, C57BL/6J mice
From the text: Tumor infiltration of CD8+cells evaluated at the day of sacrifice by FACS (FIG. 15B). Tumor growth of CT26 colon cancer in NSG mice treated with PBS (Control), clonidine, clonidine mixed with yohimbine, or yohimbine alone (FIG. 15C). FIGS. 16A-C is a set of curves and histograms showing the tumor growth of CT26 colon cancer in C57BL/6J mice treated with PBS (Control, circles), guanabenz (diamonds), guanabenz mixed with yohimbine (light grey inverted triangles), or yohimbine alone (dark grey inverted triangles) (FIG. 16A); the tumor infiltration of CD8+ cells evaluated at the day of sacrifice by FACS (FIG. 16B); and the tumor growth of CT26 colon cancer in NSG mice treated with PBS (Control), guanabenz, guanabenz mixed with yohimbine, or yohimbine alone (FIG. 16C). […] For evaluation of yohimbine on the effect of clonidine and guanabenz, the mice were randomized into different groups when tumors size arrived around 100 mm^3 and received daily injections of guanabenz (5 mg/kg, i.p.), yohimbine (10 mg/kg), a mix of guanabenz (5 mg/kg, i.p.) and yohimbine (10 mg/kg, i.p.), clonidine (5 mg/kg, i.p.), a mix of clonidine (5 mg/kg, i.p.) and yohimbine (10 mg/kg, i.p.) or vehicle control.

human LS411N cancer = assay: LS411N xenograft with adoptive transfer of allogeneic human PBMC; assay type: in vivo; settings: PBMC, clonidine mixed with yohimbine
Description: (§1) Adoptive transfer of human PBMC was performed when tumor size reaches 100 mm^3.

[2] = system: human LS411N ovarian cancer; assay: as above; assay type: in vivo
Description: as §1

MC38 colon cancer = MC38 colon cancer tumor growth (FIG. 25A); assay type: in vivo, mice; settings: 5 mg/kg, i.p
Description: (§2) FIGS. 25A-B is a set of curves showing the tumor growth of MC38 (FIG. 25A) or CT26 (FIG. 25B) colon cancer in mice treated with PBS (Control; closed circles), clonidine (5 mg/kg, i.p; closed squares) or apraclonidine (5 mg/kg, i.p; closed triangles).

CT26 colon cancer [3] = assay: CT26 colon cancer tumor growth (FIG. 25B); assay type: in vivo, mice; settings: 5 mg/kg, i.p
Description: as §2

[4] = stated without a test; cited from earlier work
cholangiocarcinoma = settings: in vitro; Kanno et al., Hepatology, 2002; cited from earlier work
JAK2V617F allele burden = assay: Myelofibrosis by JAK2V617F bone marrow transplantation, allele burden; assay type: in vivo, C57BL/6 mice; settings: 5 mg/kg i.p. daily; Day 7 versus Day 0
Description: Bone marrow from primary CD45.2 JAK2V617F mice was mixed 1:1 with CD45.1 C57BL/6 marrow and transplanted into lethally irradiated CD45.2 C57BL/6 recipients. 1 month after bone marrow transplantation, mice were randomized into three groups and received daily i.p injection of 5 mg/kg of clonidine, guanabenz or PBS. Blood was taken on Day 0 (Just before the treatment) and on Day 7 (7 days after the treatment). The allele burden was assessed as a fraction of CD45.2 cells along total CD45 cells in the blood of mice.
Decreased JAK2V617F allele burden is a golden standard method to evaluate the disease progression of MF.

[5] = system: JAK2V617F mutated bone marrow; assay: Myelofibrosis by JAK2V617F bone marrow transplantation, platelet counts; assay type: in vivo, mice; settings: 5 mg/kg daily for three weeks
Description: Murine femurs and tibias from JAK2V617F mutant mice were first harvested and cleaned thoroughly. Marrow cells were flushed into PBS with 2% fetal bovine serum using a 25G needle and syringe. Resulting cell suspensions were then filtered through a 40 uM cell strainer. Recipient mice were irradiated with two doses of 500 rad 4 h apart. 1 million of donor cells were injected into wild-type recipients by standard intravenous injection using a 27G insulin syringe. One week after bone marrow transplantation, mice were treated with guanabenz or clonidine at a dose of 5 mg/kg daily for three weeks. After three weeks of treatment, mice were dissected and peripheral blood was drawn by cardiac puncture, the platelet concentration was measured by Cell Counter Analyzer MS9-5V.

MC38 colon carcinomas [6] = assay: MC38 colon carcinoma in wildtype mice; assay type: in vivo, C57BL/6 Wildtype mice; settings: 5 mg/kg, i.p. daily from tumor size around 50 mm^3
Description: (§3) C57BL/6 Wildtype or C57BL/6 Adra2a KO mice bearing MC38 colon carcinomas received daily injections of vehicle control (PBS), clonidine (5 mg/kg, i.p.) or guanabenz (5 mg/kg, i.p.), when the tumor size was around 50 mm^3, until the day of sacrifice.

MC38 colon carcinomas [7] = assay: MC38 colon carcinoma in Adra2a KO mice; assay type: in vivo, C57BL/6 Adra2a KO mice; settings: 5 mg/kg, i.p. daily from tumor size around 50 mm^3
Description: as §3

prostate cancer = assay: Xenograft model of prostate cancer in NSG mice treated with PBMC; assay type: in vivo

Compound: COC(=O)[C@@H]1[C@H]2C[C@H]3c4[nH]c5ccccc5c4CCN3C[C@@H]2CC[C@@H]1O [yohimbine]
- effect of co-administered antagonist on the inhibition of tumor growth by clonidine (CT26 colon carcinomas; CT26, clonidine 5 mg/kg i.p. plus phentolamine 5 mg/kg, propranolol 5 mg/kg or yohimbine 10 mg/kg i.p. daily): strongly attenuated; also recorded: reduced the inhibition of tumor growth
- effect of co-administered antagonist on the inhibition of tumor growth by guanabenz (CT26 colon carcinomas; CT26, guanabenz 5 mg/kg i.p. plus phentolamine 5 mg/kg or yohimbine 10 mg/kg i.p. daily): strongly attenuated; also recorded: reduced the inhibition of tumor growth
- effect of yohimbine on the inhibition of tumor growth by clonidine (CT26 colon cancer [1]; CT26, clonidine mixed with yohimbine): strongly attenuated
- effect of yohimbine on the inhibition of tumor growth by guanabenz (CT26 colon cancer [1]; CT26, guanabenz mixed with yohimbine): strongly attenuated
- effect of yohimbine on the tumor inhibition by clonidine (human LS411N cancer): strongly attenuated
- effect of yohimbine on the tumor inhibition by guanabenz ([2]; PBMC, guanabenz mixed with yohimbine): strongly attenuated

Compound: Nc1cc(Cl)c(N=C2NCCN2)c(Cl)c1 [apraclonidine]
- tumor growth (MC38 colon cancer): anti-tumor effect
- tumor growth (CT26 colon cancer [3]): anti-tumor effect
- crossing of the blood-brain barrier [4]: does not cross the blood-brain barrier

Compound: brimonidine tartrate [UK14,304]
- cholangiocarcinoma growth (cholangiocarcinoma): significantly decreases cholangiocarcinoma growth

Compound: N=C(N)N/N=C/c1c(Cl)cccc1Cl [guanabenz]
- tumor growth (tumor volume) (CT26 colon carcinomas; CT26 in BALB/c mice, 5 mg/kg, i.p. daily from tumor size around 50 mm^3 until sacrifice): promotes a decrease of the tumor volume; also recorded: strongly inhibited CT26 tumor growth
- tumor growth (CT26 colon cancer [1]; CT26 colon cancer, FIGS. 15A, 16A): inhibited CT26 colon cancer tumor growth
- JAK2V617F allele burden (CD45.2 cells among total CD45 cells in blood) (JAK2V617F allele burden): decrease of JAK2V617F allele burden in a number of mice
- platelet (PLT) counts [5]: significantly reduces the platelet (PLT) counts; also recorded: significantly reduced the high platelet counts
- tumor growth ([2]; human allogenic PBMC transferred at tumor size 100 mm^3): significant tumor inhibition
- tumor growth (MC38 colon carcinomas [6]): significant tumor inhibition
- tumor inhibition in Adra2a KO mice (MC38 colon carcinomas [7]): almost completely attenuated
- tumor growth (prostate cancer): strong tumor inhibition
